In assay [1] the test system is CML (K562 cell lines). The settings on record: other reported cancer cells, read-out: GI50 concentration; cited from earlier work.
In assay [2] the test system is colorectal cancer (HT29). The following applies: other reported cancer cells, read-out: GI50 concentration; cited from earlier work.
For assay [3], the system named is MIA PaCA-2 cells. The assay is described as follows: MTT cell growth assay, MIA PaCA-2 cells (Example 1). Format: cell-based. The following applies: Homo sapiens, MIA PaCa-2, 72 h, Mia-Paca-2, 75 μM Compound I, read-out: Percent growth inhibition by comparison with control cell growth. The text has this:
(§1) Cell culture and proliferation assay: The following materials are purchased: FCS, RPMI and Dulbecco's modified Eagle medium (DMEM), trypsin-EDTA solution, penicillin-streptomycin solution from Biochrom K G (Berlin, Germany). All the other reagents are from Sigma Chemical Co. (St. Louis, Mo., USA). ASPC-1, MIA PaCA-2, human pancreatic cell lines are obtained from American Type Culture Collection (Rockville, Md.). Compound I is kindly provided by Novartis Pharma AG (Basel, Switzerland). T3M4 human pancreatic cell lines are a gift from Dr. R. S. Metzgar (Durham, N.C., USA). TAKA-1 immortalized Syrian golden hamster pancreatic ductal cells are a gift from Prof. P. Pour (University of Nebraska, Omaha, Nebr., USA). Human pancreatic cancer cell lines are routinely grown in DMEM (MIA-PaCA-2) or RPMI (ASPC-1, T3M4) supplemented with 10% FCS, 100 U/ml penicillin and 100 μg/ml streptomycin (complete medium).
TAKA-1 cells are grown in RPMI supplemented with 10% FCS, 100 U/ml penicillin and 100 μg/ml streptomycin. Cells are seeded overnight at a density of 5000 cells/well in 96-well plates and the proliferation assay is performed as described above. […] Cellular MTT is solubilized with acidic isopropanol and the optical density is measured at 570 nm using a plate reader (Dynatech MR 7000). […]
Statistical analysis: Results are expressed as mean±SD. […]

Assay [4] deals with six tested pancreatic cancer cell lines. The assay can be described thus: GI50 by MTT assay, span over all six pancreatic cancer cell lines. It counts as cell-based. The settings on record: Homo sapiens, read-out: GI50 concentration, range over cell lines. The text has this:
(§2) Material and Methods: RPMI-1640 DMEM, trypsin-EDTA, and penicillin-streptomycin are purchased from Invitrogen (Karlsruhe, Germany); FBS from PAN Biotech (Aidenbach, Germany); human recombinant PDGF, IGF-1 and FGF-2 from R&D Systems (Abingdon, United Kingdom), and EGF from Upstate Biotechnology (Hamburg, Germany). Phospho-PDGFR-beta (tyr857) and P-EGFR (tyr1173) polyclonal antibodies are purchased from Santa Cruz Biotechnology, Inc. (Santa Cruz, Calif., USA). Phospho-p44/42 MAPK (Thr202/Tyr204) antibodies are purchased from Cell Signaling Technology (Frankfurt, Germany), anti-rabbit IgG HRPO-linked antibodies and ECL immunoblotting detection reagents from Amersham Biosciences (Amersham Life Science, Amersham, UK), and anti-goat IgG-HPRO peroxidase linked antibodies from Santa Cruz Biotechnology, Inc. (Santa Cruz, Calif., USA). Complete mini-EDTA-free protease inhibitor cocktail tablets and Annexin-V-Fluos are purchased from Roche GmbH (Mannheim, Germany). All other reagents are from Sigma Chemical Company (Taufkirchen, Germany).
(§3) Cell culture and MTT assay: Human pancreatic cancer cell lines are routinely grown in DMEM (Colo-357 and Mia-PaCa-2) or RPMI (Aspc-1, BxPc-3, Capan-1, and T3M4) supplemented with 10% FBS, 100 U/ml penicillin, and 100 μg/ml streptomycin (complete medium). […] Formazan products are solubilized with acidic isopropanol, and the optical density is measured at 570 nm. […]

Assay [5] deals with Mia-PaCa-2 cells. The assay can be described thus: GI50 by MTT assay, Mia-PaCa-2 (Example 2). Format: cell-based. The settings on record: Homo sapiens, read-out: GI50 concentration.
Text: as §2, §3
(Tetrazolium assays rely on reduction of a dye to a coloured formazan, in cell work by metabolically active cells.)

In assay [6] the test system is pancreatic cancer cell lines. The assay is described as follows: FACS cell cycle analysis. It counts as cell-based, human. The following applies: 48 hours of incubation, Compound I at GI50, compared to untreated cells. The text has this:
(§4) The resulting DNA histograms are interpreted using the Cell Quest Pro software (Becton Dickinson and Company, New York, USA).

Assay [7] relates to T3M4 cells. The assay is described as follows: Growth factor-induced proliferation (MTT), T3M4. Format: cell-based, human. The following applies: T3M4, IGF-1 plus Compound I at GI50, 72 hours, MTT. On the procedure: (§5) Cell culture and MTT assay: Human pancreatic cancer cell lines are routinely grown in DMEM (Colo-357 and Mia-PaCa-2) or RPMI (Aspc-1, BxPc-3, Capan-1, and T3M4) supplemented with 10% FBS, 100 U/ml penicillin, and 100 μg/ml streptomycin (complete medium). To assess cell proliferation, the MTT test is employed. […] After 48 or 72 hours of incubation, 3-(4,5-methylthiazol-2-yl)-2,5-diphenyl-tetrazolium bromide (MTT) is added (50 μg/well) for 4 hours. Formazan products are solubilized with acidic isopropanol, and the optical density is measured at 570 nm. […] All experiments are performed in triplicate.
(§6) EGF-induced proliferation of both Mia-PaCa-2 and T3M4 cell lines in a dose-dependent manner is seen with maximal effects of +72% ±7.5% (Mia-PaCa-2) and +52% ±23% (T3M4). […] FGF-2 markedly stimulates cell growth in Mia-PaCa-2 cell lines with maximal effects of +79% ±6%, and only slightly stimulated T3M4 cell lines, with maximal effects of +7% ±4%. […] Both cell lines are less sensitive to IGF-1 stimulation compared with EGF and FGF-2, with maximal effects of +24% ±2% in Mia-PaCa-2 and +17% ±4% in. T3M4.

Assay [8] concerns Mia-PaCa-2 cells. The assay is described as follows: Propidium iodide staining of cell death, Mia-PaCa-2. It counts as cell-based, human. The settings on record: Mia-PaCa-2, Compound I at GI50, 1% FBS medium; control 10.7% ±2.5%.
Text: as §4

Assay [9] concerns Mia-PaCa-2 cells. The assay can be described thus: Growth factor-induced proliferation (MTT), Mia-PaCa-2. It counts as cell-based, human. The settings on record: Mia-PaCa-2, IGF-1 plus Compound I at GI50, 72 hours, MTT. As to the method:
as §5, §6

Assay [10] concerns TAKA-1 cells. The assay can be described thus: MTT cell growth assay, TAKA-1 cells (Example 1). It counts as cell-based, Syrian golden hamster. The settings on record: 72 h.
Text: as §1
TAKA-1 cells are grown in RPMI supplemented with 10% FCS, 100 U/ml penicillin and 100 μg/ml streptomycin. Cells are seeded overnight at a density of 5000 cells/well in 96-well plates and the proliferation assay is performed as described above. […] After 72 hours, 3-(4,5-methylthiazol-2-yl)-2,5-diphenyl-tetrazolium bromide (MTT) is added (50 μg/well) for 4 hours. Cellular MTT is solubilized with acidic isopropanol and the optical density is measured at 570 nm using a plate reader (Dynatech MR 7000). All experiments are performed in triplicates.
Statistical analysis: Results are expressed as mean±SD. For statistical analysis, the Student t-test is used. Significance is defined as p<0.05.

Assay [11] relates to T3M4 cells. The assay is described as follows: GI50 by MTT assay, T3M4 (Example 2). Format: cell-based. The following applies: Homo sapiens, T3M4, complete medium (10% FBS), 48 h, read-out: GI50 concentration.
Text: as §2, §3

Assay [12] relates to T3M4 cells. The assay is described as follows: Propidium iodide staining of cell death, T3M4. It counts as cell-based, human. The following applies: T3M4, Compound I at GI50, 1% FBS medium; control 5.7% ±2.8%.
Text: as §4

The test system of assay [13] is Capan-1 cells. The assay can be described thus: GI50 by MTT assay, Capan-1 (Example 2). It counts as cell-based. The following applies: Homo sapiens, Capan-1, complete medium (10% FBS), 48 h, read-out: GI50 concentration.
Text: as §2, §3

Values joined by “and” are separate entries in the source; they are usually repeats but may differ in a detail not shown here. Equal entries are not always repeated. “Also recorded” adds a separate entry of the source. Where two headings read alike, the source gives them in different places.

Usually inhibition stands for the share of the control response that was lost under treatment. Consider `Cc1ccc(NC(=O)c2ccc(CN3CCN(C)CC3)cc2)cc1Nc1nccc(-c2cccnc2)n1` [Compound I], for which the GI50 in [1] was 0.56 µM; in [2], 6 µM; in assay [4] (all six pancreatic cancer cell lines, 10% FBS/FCS medium), 17 to 31.5 µM; in assay [4] (pancreatic cancer cell lines, low serum conditions (1% FCS)) it was 9 to 20 µM; in assay [5] (Mia-PaCa-2, complete medium (10% FBS), 48 h, MTT) it was 26 µM; in assay [5] (Mia-PaCa-2, low serum conditions (1% FCS)), 9 µM. Also, the GI50 in assay [11] amounted to 25 µM; in assay [13] it was 19 µM. For the same compound, the inhibition at 75 µM in assay [3] stood at 86.6%; in assay [10] (Mesocricetus auratus, TAKA-1, 75 μM Compound I, read-out: Percent growth inhibition by comparison with control cell growth), 90.8%. Besides, the “Change in cell cycle pattern” value in assay [6] is given as “does not reveal any significant changes in the cell cycle pattern; also recorded: no cell cycle change”. Further, the “Inhibitory effect on IGF-1-induced proliferation” value in assay [7] and in [9] was “no significant inhibitory effects” in each case. Further, the figures for the “Cell death by propidium iodide staining” value in assay [8] and in [12] were 33.7±16.5% and 26.8% +16.5, respectively. In addition, the inhibition at 25 µM in [10] (Mesocricetus auratus, TAKA-1, 25 μM Compound I, read-out: Percent growth inhibition by comparison with control cell growth) worked out at 70.9%. For the same compound, the “Percent growth inhibition by comparison with control cell growth” value in assay [10] (TAKA-1, 25 μM Compound I, 25 µM) is −65% and −67.9%; in [10] (TAKA-1, 75 μM Compound I, 75 µM), −91.5% and −90.6%.

(Values after patent US20060167006A1, “Method of treatment” (priority 2003, published 2006).)
